# Several values for one entry are separate records, joined by “and”; a condition that tells them apart may be missing. Identical values can stand only once. No end group written: not given here.
# What was measured:
# EL4/HHD tumor cells = assay: In vivo tumor protection assay; design: species or system HHD mice; conditions: for Survival post-challenge / Survival post-challenge (days): individual mice
# Procedure: HHD mice were vaccinated with 100 μg of peptide emulsified in IFA in the presence of 150 μg of the 1 Ab restricted HBVcore128 epitope once and then again two weeks later. One week after the second vaccination they were challenged subcutaneously with 2×10^4 EL4/HHD cells. Survival was recorded every two days.
# HHD mice were vaccinated with the optimized cryptic TERT572Y and TERT988Y peptides and fifteen days later boosted with either the same optimized or the corresponding native cryptic peptide. Ten days after the boost, mice were challenged with EL4/HHD tumor cells and monitored for tumor growth and survival. Mice primed and boosted with the gp100154 peptide were used as negative controls (Table 8). 100% of control mice died by day 43 post-challenge.
# [1] = system: RMAS/HHD cells pulsed with TERT988; assay: Avidity of CTL lines for native TERT988 (51Cr release); type: cell-based, HHD mice; conditions: TERT988Y primed spleen cells
# Procedure: (§1) HHD mice were injected subcutaneously with 100 μg of nonamer peptides emulsified in incomplete Freund's adjuvant (IFA) in the presence of 150 μg of the I-Ab restricted HBVcore128 T-helper epitope. Spleen cells (5×10^7 cells in 10 ml) from immunized HHD mice were stimulated in vitro with peptide (10 μM) in RPMI1640+10% FCS for five days. The CTL lines were established by weekly re-stimulation in vitro with irradiated spleen cells in the presence of peptide and 50 U/ml IL-2 (Proleukin, Chiron Corp., Emeryville, Calif.).
# (§2) Murine RMAS/HHD cells were used as targets for cytotoxicity as described (Tourdot, Scardino et al. 2000). Briefly, 2.5×10^3 51Cr-labeled targets were pulsed with increasing doses (0.00001-10 μM) of peptides at 37° C. for 60 min. Effector cells in 100 μl were then added and incubated at 37° C. for 4 hours. After incubation, 100 μl of supernatant were collected and radioactivity was measured in a gamma counter. The specific lysis was determined as: Lysis=(Experimental Release−Spontaneous Release)/(Maximal Release−Spontaneous Release). CTL avidity is defined as the peptide concentration that gives half the maximal lysis. […] In Vivo Tumor Protection Assay
# (§3) HHD mice were immunized with the optimized cryptic TERT988Y peptide. Eleven days later, spleen cells from vaccinated mice were pooled and in vitro serially stimulated with 10 μM of either TERT988Y or the native cryptic TERT988 peptides in the presence of 50 IU/ml of IL2. Stimulations were repeated every week. After the first, third and sixth in vitro stimulation, CTL lines were tested for their avidity for the native TERT988 peptide in a classical ^51Cr release cytotoxicity assay (Table 5).
# [2] = Storage stability of vaccine peptides; type: physicochemical; conditions: more than two years of storage at −80° C.
# Procedure: The vaccine consisted of optimized TERT572Y (YLFFYRKSV) (SEQ ID NO:2) and native TERT572 (RLFFYRKSV) (SEQ ID NO:1) peptides emulsified in Montanide ISA51 (Seppic Inc, France). The vaccine peptides were synthesized at the Faculty of Pharmacy, University of Patras (Greece) by means of solid-phase Fmoc/Bu chemistry. Quality assurance studies included confirmation of identity, sterility and purity (>95% for both peptides). […] Each peptide was prepared as a lyophilized powder for reconstitution and dilution in sterile water.
# [3] = system: RMAS/HHD cells pulsed with TERT572; assay: Avidity for TERT572 of CTL after in vivo prime and boost; conditions: individual HHD mice, 1st vaccination TERT572Y, 2nd vaccination the labelled peptide
# Procedure: as §1, §2
# HHD mice were vaccinated with the optimized cryptic TERT572Y peptide described above. Fifteen days later, they were boosted with either the same optimized or the native cryptic TERT572 peptide. […]
# [4] = system: patients treated with TERT540; conditions: cited from earlier work
# [5] = system: RMAS/HHD cells pulsed with MAGE-A248D9; assay: Avidity of CTL lines for native MAGE-A248D9 (51Cr release); type: cell-based, HHD mice; conditions: MAGE-A248V9 primed spleen cells
# Procedure: as §1, §2
# as §3, with “optimized MAGE-A248V9 peptide, corresponding to the” for “optimized”, “MAGE-A248D9 (both described in WO03083124).” for “TERT988Y peptide.”, “100” for “10”, “MAGE-A248V9” for “TERT988Y”, “MAGE-A248D9” for “TERT988”, “6).” for “5).”
# [6] = Phase I clinical study: toxicity (NCI Common Toxicity Criteria); type: in vivo, human
# Procedure: Patients received a total of six subcutaneous vaccinations administered every 3 weeks. Peptides in 0.5 ml aqueous solution were emulsified with 0.5 ml Montanide ISA51 immediately before being injected. The optimized TERT572Y peptide was used for the first 2 vaccinations and the native TERT572 peptide for the remaining 4 vaccinations. Five dose levels of the peptides were studied; dose levels included 2, 3, 4, 5 and 6 mg of both peptides. Three patients were entered at each dose level. An additional 3 patients were planned to be enrolled at the dose level where a dose-limiting event was observed. Each patient received the same peptide dose for all six vaccinations. No other treatment with possible antitumor activity, i.e., chemotherapy, radiotherapy, hormonal therapy or administration of corticosteroids, was allowed during the course of vaccination.
# Before entering the study, all patients were assessed by complete medical history, physical examination, and complete blood cell count with differential, serum chemistry and baseline measurements of relevant tumor markers. Moreover, measurable disease was determined by standard imaging procedures (chest x-ray, ultrasound, computed tomography scans of thorax and abdomen, magnetic resonance imaging (MRI) if indicated, and whole body bone scans). Toxicity during the vaccination protocol was evaluated by repeating the complete blood cell count weekly and by performing medical history, physical examination and serum chemistry every three weeks before each subsequent injection during the vaccination period and every month thereafter during the follow up. Toxicity was assessed and scored using the National Cancer Institute (NCI) Common Toxicity Criteria (Ajani, Welch et al. 1990). Dose-limiting toxicity (DLT) was assessed during the entire vaccination protocol and was defined as the occurrence of any of the following: grade 4 hematologic toxicity; grade 3-4 neutropenia with fever>38.2° C.; grade 3-4 non-hematologic toxicity; and any treatment delay because of toxicity. Dose escalation was discontinued and the DLT dose level was reached if at least 50% of the patients treated at that level develop a DLT. The MTD dose level was defined as the first level below the DLT dose level.
# [7] = prime TERT988Y, boost the labelled peptide
# [8] = 1 in vitro stimulation with the labelled peptide (10 μM)
# [9] = 3 in vitro stimulations with the labelled peptide
# [10] = 6 in vitro stimulations with the labelled peptide
# [11] = prime TERT572Y, boost the labelled peptide
# [12] = 1 in vitro stimulation with the labelled peptide
substance,measurement,setting,value
DLQVNSLQTV (TERT-988) [TERT988],Survival post-challenge,EL4/HHD tumor cells; [7],39 days and 40 days and 41 days
same,Survival post-challenge (days),EL4/HHD tumor cells; [7],200+ days
same,CTL line avidity,[1]; [8],170 nM
same,CTL line avidity,[1]; [9],70 nM
same,CTL line avidity,[1]; [10],3 nM
"KTWGQYWQV [Gp100154, reference compound]",Survival post-challenge,"EL4/HHD tumor cells; prime Gp100154, boost the labelled peptide (negative control)",39 days (2×) and 43 days and 41 days (2×) and 40 days
same,control mice died by day 43 post-challenge,EL4/HHD tumor cells; primed and boosted with gp100154,100%
"RLFFYRKSV (TERT-572) [TERT572, native cryptic peptide derived from TERT]",Survival post-challenge,EL4/HHD tumor cells; [11],32 days and 35 days and 40 days
same,Survival post-challenge (days),EL4/HHD tumor cells; [11],200+ days
same,purity or concentration after storage,[2],No decrease in purity or concentration
same,CTL avidity,[3],110 nM and 190 nM and 70 nM
"TERT540: dominant peptide TERT540 (hTERT:540-548), literature vaccine (ILAKFLHWL; UniProt O14746 540-548, looked up, fragment)",objective clinical response,"[4]; 11 patients with renal cancer (Parkhurst, Riley et al. 2004)",none of 11 patients
same,patients who responded to the vaccine,"[4]; TERT540 emulsified in Monatanide (Parkhurst, Riley et al. 2004)",50%
YLEYRQVPD (MAGE-A-248D9) [MAGE-A248D9],CTL avidity,[5]; [12],200 nM
same,CTL avidity,[5]; [9],40 nM
same,CTL avidity,[5]; [10],0.8 nM
YLEYRQVPV (MAGE-A-248V9) [MAGE-A248V9],CTL avidity,[5]; [12],400 nM
same,CTL avidity,[5]; [9],450 nM
same,CTL avidity,[5]; [10],320 nM
"YLFFYRKSV [TERT572Y, YLFFYRKSV]","hematologic, renal, gastrointestinal or hepatic toxicity",[6]; TERT-expressing normal cells and tissues,"no significant hematologic, renal, gastrointestinal or hepatic toxicity was observed"
same,MTD dose level,[6]; dose levels 2-6 mg,has not been reached
same,Dose-limiting toxicity (DLT),"[6]; dose levels 2-6 mg, entire study",No DLT was observed
same,signs of autoimmunity,[6]; even 24 months after the end of vaccination,none of the patients showed signs of autoimmunity
same,Toxicity Grade I,[6]; individual patients,"no (6×) and Anemia, local skin, fatigue, and anorexia and Thrombo/penia, local skin and Local skin (5×) and thrombocytopenia and Anemia, local skin (3×) and Anemia and Local skin, anemia"
same,Toxicity Grade II,[6]; individual patients,"fatigue, nausea and no (16×) and anorexia, fatigue, and nausea and anorexia, fatigue"
same,Toxicity Grade III/IV,[6]; individual patients,no
same,delayed toxicity,[6]; monthly follow up after completing or discontinuing vaccination,no signs or findings of delayed toxicity were observed
same,grade 11 anorexia,[6]; of 19 patients,2 patients
same,grade 11 fatigue,[6]; of 19 patients,3 patients
same,grade 11 nausea,[6]; of 19 patients,2 patients
same,grade I anemia,[6]; of 19 patients,6 patients
same,grade I anorexia,[6]; of 19 patients,1 patient
same,grade I fatigue,[6]; of 19 patients,1 patient
same,grade I local skin reaction,[6]; of 19 patients,11 patients
same,grade I thrombocytopenia,[6]; of 19 patients,2 patients
same,patients who developed grade 11 toxicity,[6]; of 19 patients,Three
same,patients who developed grade I toxicity,[6]; of 19 patients,Thirteen
YLQVNSLQTV (TERT-988Y1) [TERT988Y],Survival post-challenge,EL4/HHD tumor cells; [7],40 days (3×) and 43 days (2×)
same,Survival post-challenge (days),EL4/HHD tumor cells; [7],200+ days
same,CTL line avidity,[1]; [8],300 nM
same,CTL line avidity,[1]; [9],500 nM
same,CTL line avidity,[1]; [10],600 nM
